Consider one compound from PMC9853328, “Potent Platinum(IV) Prodrugs That Incorporate a Biotin Moiety to Selectively Target Cancer Cells” (Pharmaceutics, 2022).

Data set [1] concerns Du145 prostate cancer cells. Description: MTT in vitro cytotoxicity assay, Du145. Format: cell-based. How it is done:
(§1) The in vitro cytotoxicity assays were undertaken at Calvary Mater Hospital, Waratah, NSW, Australia, following a method previously published in the literature. A stock solution for each compound was prepared in DMSO (30 mM) and stored at −20 °C. The cell lines used in the study include HT29 colon, U87 glioblastoma, MCF-7 breast, A2780 ovarian, H460 lung, A431 skin, Du145 prostate, BE2-C neuroblastoma, SJ-G2 glioblastoma, MIA pancreas, and cisplatin-resistant ADDP ovarian (subclone of A2780) cancer cells, as well as the non-cancerous-derived MCF10A breast cell line. The cancer cell lines were cultured in a humidified atmosphere 5% CO2 at 37 °C and maintained in Dulbecco’s modified Eagle’s medium (Trace Biosciences, Sydney, Australia), supplemented with 10% foetal bovine serum, sodium bicarbonate (10 mM), penicillin (100 IU/mL), streptomycin (100 µg/mL), and glutamine (4 mM). The non-cancerous MCF10A cell line was maintained in DMEM:F12 (1:1) cell culture media, with 5% heat inactivated horse serum, supplemented with penicillin (50 IU/mL), streptomycin (50 µg/mL), glutamine (2 mM), HEPES (20 mM), epidermal growth factor (20 ng/mL), hydrocortisone (500 ng/mL), cholera toxin (100 ng/mL), and insulin (10 µg/mL). Cells were plated in duplicate in medium (100 µL) at a density of 2500–4000 cells per well in 96-well plates. On day 0, (24 h after plating) when the cells were in logarithmic growth, medium (100 μL) with or without the test agent was added to each well. The growth inhibitory effects were evaluated after 72 h drug exposure, using the MTT (3-(4,5-dimethylthiazol-2-yl)-2,5-diphenyltetrazolium bromide) assay, with the absorbance read at 540 nm. An eight-point dose–response curve was produced, which was used to determine the concentration at which growth was inhibited by 50% (GI50). This calculation was based on the difference between the optical density values on day 0 and those at the end of drug exposure. […] Experiments were conducted on three separate occasions and GI50 values were reported as the mean and standard error of the mean.

In data set [2] the test system is SJ-G2 glioblastoma cells. Put plainly: MTT in vitro cytotoxicity assay, SJ-G2. The data set is classed as cell-based. The settings on record: 72 h drug exposure, n = 3, read-out: GI50 ± SEM, SJ-G2. How it is done:
as §1

The subject of data set [3] is BE2-C neuroblastoma cells. Put plainly: MTT in vitro cytotoxicity assay, BE2-C. The note with it: 72 h drug exposure, n = 3, read-out: GI50 ± SEM, BE2-C. Format: cell-based. Here is the method: as §1
Data set [4] relates to HT29 colon cancer cells. Description: MTT in vitro cytotoxicity assay, HT29. The data set is classed as cell-based. How it is done:
as §1

The test system of data set [5] is A2780 ovarian cancer cells. Description: MTT in vitro cytotoxicity assay, A2780. The data set is classed as cell-based. The note with it: 72 h drug exposure, n = 3, read-out: GI50 ± SEM, A2780. How it is done: as §1
Data set [6] relates to MCF-7 breast cancer cells. Put plainly: MTT in vitro cytotoxicity assay, MCF-7. Format: cell-based. The settings on record: MTT, 72 h drug exposure, n = 3; read-out: GI50 ± SEM, MCF-7.
Data set [7] concerns cisplatin-resistant ADDP ovarian (subclone of A2780) cancer cells. Description: MTT in vitro cytotoxicity assay, ADDP. The note with it: 72 h drug exposure, n = 3, read-out: GI50 ± SEM, ADDP. Format: cell-based. Here is the method: as §1
Data set [8] is described as follows: Lipophilicity by RP-HPLC (logkw). The note with it: capacity factor in 100% water. The data set is classed as physicochemical. Here is the method:
HPLC experiments were carried out using an Agilent Technologies (Melbourne, Australia) 1260 Infinity instrument, equipped with a Phenomenex (Sydney, Australia) Onyx^TM Monolithic C18 reverse phase column (100 × 4.6 mm, 130 Å). The mobile phase was made up of 0.06% TFA in water (solvent A) and 0.06% TFA in an acetonitrile:water (9:1) mixture (solvent B). Samples were eluted over a gradient of 0–100% (% B) for 15 min, at a flow rate of 1 mL/min, with a sample injection volume of 10 µL. Eluting peaks were detected using a PDA at 254 nm.
For lipophilicity experiments, RP-HPLC was utilised to determine the logkw of each compound, similarly to what has been previously published for similar complexes. Samples were eluted at various isocratic percentages, ranging from 18–30% solvent B. To determine the dead volume of the column, potassium iodide was used as an external dead volume marker. The retention time of each sample in each isocratic run ( tr ) and the dead volume time ( t0 ) were both substituted in Equation (1) to calculate the capacity factor ( k ). (1) k=tr−t0/t0
Following this, logk was plotted against the percentage of ACN. For each complex, a minimum of four concentrations of ACN were used. This produced a linear graph with the equation in the form:(2) logk=Sφ+logkw where S is the slope, φ is the percentage of ACN, and logkw is the y-intercept, which represents the capacity factor of the compound in 100% water.
It is important to explore the lipophilicity of a drug, as it is widely believed that increased lipophilicity results in greater cellular accumulation. To understand the lipophilicity of 1–4, RP-HPLC was utilised to determine the logkw of each complex. To calculate this, each complex was eluted at different isocratic percentages, whereby the retention time was used in Equation (1) to calculate the capacity factor (k). The percentage of the organic solvent was then plotted against log k for each isocratic percentage, producing a linear equation that allowed for logkw to be deduced using Equation (2) (Figure S38). The logkw value represents the capacity factor of the compound in 100% water and can be used to compare a series of compounds. Since 1–4 comprise the same axially bound ligand, biotin, the lipophilicity was influenced by the groups on the PL. The logkw of each complex is presented in Table 1, with their corresponding PL. The increasing lipophilicity of the complexes followed the order: 1 < 4 < 2 < 3.

In data set [9] the test system is MIA pancreas cancer cells. Description: MTT in vitro cytotoxicity assay, MIA. Format: cell-based. The settings on record: 72 h drug exposure, n = 3, read-out: GI50 ± SEM, MIA. How it is done:
as §1

Each structure is given as a SMILES string.

For `COc1cc[n+]2c3c1ccc1c(OC)cc[n+](c13)[Pt-2]21([OH])([O]C(=O)CCCC[C@@H]2SC[C@@H]3NC(=O)N[C@@H]32)[NH2+][C@H]2CCCC[C@@H]2[NH2+]1.O=[N+]([O-])[O-].O=[N+]([O-])[O-]` [Complex 3, [Pt(4,7-dimethoxy-1,10-phenanthroline)(1S,2S-diaminocyclohexane)(biotin)(hydroxido)](NO3)2], the GI50 was 120 ± 40 nM in [1] (MTT, 72 h drug exposure, n = 3, read-out: GI50 ± SEM, Du145); 570 ± 170 nM in data set [2]; 2000 ± 70 nM in data set [3]; 130 ± 50 nM in [4] (MTT, 72 h drug exposure, n = 3, read-out: GI50 ± SEM, HT29); 370 ± 30 nM in [5]; 99 ± 41 nM in data set [6]. Besides, the results for the GI50 in data set [7] and in [9] were 170 ± 20 nM and 180 ± 10 nM, respectively. Further, the “number-fold potency against cisplatin, Du145 prostate” value in data set [1] (ratio of GI50 values, 72 h) stood at 10 fold. The “number-fold potency against cisplatin, HT29 colon” value in data set [4] (ratio of GI50 values, 72 h) amounted to 87 fold. Also, in [8], the logkw is on record as 0.96.

In general, GI50 refers to the concentration at which growth is held to half of that of the control.
